The record followed here is US20170334899A1, “AMINO-SUBSTITUTED ISOTHIAZOLES” (Bayer Pharma Aktiengesellschaft, priority 2014, published 2017).

Molecules are shown by their SMILES. Where only a bound is given, the exact number is not on record here.

The test system of one test is Caco-2. The test is described as follows: Proliferation assay (crystal violet), Caco-2. Type of test: cell-based. To be noted: Homo sapiens, 96 h; Caco-2 cells; 4 days incubation; crystal violet staining; read-out: IC50 inhibition of proliferation, Caco2. On the procedure: (§1) Cultivated tumor cells (cells were ordered from ATCC, except HeLa-MaTu and HeLa-MaTu-ADR, which were ordered from EPO-GmbH, Berlin) were plated at a density of 1000 to 5000 cells/well, depending on the growth rate of the respective cell line, in a 96-well multititer plate in 200 μL of their respective growth medium supplemented 10% fetal calf serum. After 24 hours, the cells of one plate (zero-point plate) were stained with crystal violet (see below), while the medium of the other plates was replaced by fresh culture medium (200 μl), to which the test substances were added in various concentrations (0 μM, as well as in the range of 0.001-10 μM; the final concentration of the solvent dimethyl sulfoxide was 0.5%). The cells were incubated for 4 days in the presence of test substances. Cell proliferation was determined by staining the cells with crystal violet: the cells were fixed by adding 20 μl/measuring point of an 11% glutaric aldehyde solution for 15 minutes at room temperature. After three washing cycles of the fixed cells with water, the plates were dried at room temperature. The cells were stained by adding 100 μl/measuring point of a 0.1% crystal violet solution (pH 3.0). After three washing cycles of the stained cells with water, the plates were dried at room temperature. The dye was dissolved by adding 100 μl/measuring point of a 10% acetic acid solution. Absorbtion was determined by photometry at a wavelength of 595 nm. The change of cell number, in percent, was calculated by normalization of the measured values to the aborbtion values of the zero-point plate (=0%) and the absorbtion of the untreated (0 μm) cells (=100%). The IC50 values were determined by means of a 4 parameter fit.

Another test concerns DU145. Description: Proliferation assay (crystal violet), DU145. Format: cell-based. Conditions: Homo sapiens, DU-145, 96 h; DU145 cells; 4 days incubation; crystal violet staining; read-out: IC50 inhibition of proliferation, DU145. How it is done: as §1
The next test deals with B16F10. The test is described as follows: Proliferation assay (crystal violet), B16F10. Conditions: Mus musculus, B16-F10, 96 h; B16F10 cells; 4 days incubation; crystal violet staining; read-out: IC50 inhibition of proliferation, B16F10. Type of test: cell-based. On the procedure:
as §1

The next test has as its system HeLa-MaTu-ADR. The test is described as follows: Proliferation assay (crystal violet), HeLa-MaTu-ADR. Type of test: cell-based. To be noted: 96 h; HeLa-MaTu-ADR cells; 4 days incubation; crystal violet staining; read-out: IC50 inhibition of proliferation, HeLa-MaTu-ADR. On the procedure:
as §1

For test [1], the target named is T1, catalytic domain of human Bub1 (amino acids 704-1085) (Homo sapiens, UniProt O43683).
T1 construct: catalytic domain of human Bub1 (amino acids 704-1085); His6 (N); made in house; host or cells: insect cells (Hi5)
T1 sequence (O43683 704-1085): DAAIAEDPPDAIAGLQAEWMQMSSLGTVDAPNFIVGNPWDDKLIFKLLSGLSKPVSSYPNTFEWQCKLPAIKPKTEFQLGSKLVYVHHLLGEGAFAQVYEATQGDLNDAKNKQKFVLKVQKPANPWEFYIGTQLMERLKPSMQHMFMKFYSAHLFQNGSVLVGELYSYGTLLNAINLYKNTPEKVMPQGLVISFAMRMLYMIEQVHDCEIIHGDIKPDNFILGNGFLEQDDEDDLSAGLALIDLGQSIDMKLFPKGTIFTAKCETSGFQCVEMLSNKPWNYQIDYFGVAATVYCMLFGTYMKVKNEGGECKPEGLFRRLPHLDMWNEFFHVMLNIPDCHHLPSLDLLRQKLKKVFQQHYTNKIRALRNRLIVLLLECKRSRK
Description: Bub1 kinase assay (TR-FRET). Type of test: biochemical. Conditions: 10 μM ATP, avg, read-out: Bub1 avg (IC50 [mol/l]). The procedure, abridged: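 Readout is the 665/620 nm TR-FRET ratio from anti-phosphoserine antibody, Eu-labelled anti-mouse IgG and streptavidin-XL665, scaled between no-enzyme and uninhibited controls. Reaction: 1 μM biotinylated peptide, 10 μM ATP, 60 min, 22 °C, after 15 min compound preincubation with His6-Bub1 (704-1085, insect-expressed, ~200 ng/ml).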
(In general: Time-resolved FRET reads energy transfer from a long-lived donor to a nearby acceptor.)

The next test relates to NCI-H460. Description: Proliferation assay (crystal violet), NCI-H460. Format: cell-based. To be noted: Homo sapiens, 96 h; NCI-H460 cells; 4 days incubation; crystal violet staining; read-out: IC50 inhibition of proliferation, NCI-H460. On the procedure:
as §1

Take `Cc1nsc(Nc2ccc(C#N)cn2)c1C(=O)Nc1ccc(OC2CCN(C(=O)OC(C)(C)C)CC2)nc1` [Example 27, tert-Butyl 4-({5-[({5-[(5-cyanopyridin-2-yl)amino]-3-methyl-1,2-thiazol-4-yl}-carbonyl)amino]pyridin-2-yl}oxy)piperidine-1-carboxylate]: the IC50 in the test with Caco-2 was 0.41 µM; in the test with DU145, 0.68 µM; in the test with B16F10, 0.61 µM; in the test on HeLa-MaTu-ADR, 0.25 µM; in test [1], at least 20 µM; with NCI-H460, 0.28 µM.
As to `Cc1nsc(Nc2cnc3ccccc3n2)c1C(=O)Nc1ccc(OC2CCN(CC(F)(F)F)CC2)nc1` [Example 21, 3-Methyl-5-(quinoxalin-2-ylamino)-N-(6-{[1-(2,2,2-trifluoroethyl)piperidin-4-yl]oxy}-pyridin-3-yl)-1,2-thiazole-4-carboxamide], the IC50 with Caco-2 was 1.4 µM; with DU145 it was 1.9 µM; in the test on B16F10, 1.4 µM; with HeLa-MaTu-ADR it was 0.88 µM; in test [1] it was at least 20 µM; in the test on NCI-H460, 0.75 µM.
Regarding `Cc1nsc(Nc2cnc(C(F)(F)F)cn2)c1C(=O)Nc1ccc(F)c(OCCCNCCC(F)(F)F)c1` [Example 307, N-(4-fluoro-3-{3-[(3,3,3-trifluoropropyl)amino]propoxy}phenyl)-3-methyl-5-{[5-(trifluoromethyl)pyrazin-2-yl]amino}-1,2-thiazole-4-carboxamide], the IC50 in test [1] is at least 20 µM.
The same measure, in the same setting: under `Cc1nsc(Nc2cnc(C(F)(F)F)cn2)c1C(=O)Nc1ccc(F)c(OC2CCN(CC(F)F)C2)c1` (centres unmarked) [Example 314, N-(3-{[1-(2,2-difluoroethyl)pyrrolidin-3-yl]oxy}-4-fluorophenyl)-3-methyl-5-{[5-(trifluoromethyl)pyrazin-2-yl]amino}-1,2-thiazole-4-carboxamide] stands at least 20 µM.
